Source: patent publication US20090075318A1, “USING PHOTO-RESPONSIVE SURFACTANTS TO REVERSIBLY CONTROL PROTEIN AGGREGATION WITH LIGHT ILLUMINATION” (University of Southern California, priority 2007, published 2009)
Like-named read-outs stand apart in the source and are kept apart here.

Assays:
α-chymotrypsin [1] = target: T1, α-chymotrypsin (Bos taurus, UniProt P00766); experiment: SANS of α-chymotrypsin/azoTAB solutions (Guinier, PDDF, shape reconstruction); set-up: species or system bovine
T1 construct: α-Ch results from the removal of two dipeptides at positions 14-15 and 147-148 in chymotrypsinogen; purchased Sigma C-4129 (lot # 105K7670); host or cells: bovine pancreas
Method: Small-angle neutron scattering experiments were performed on the 30-m NG3 SANS instruments at NIST. (24) A neutron wavelength of λ=6 Å and a detector offset of 25 cm with two sample-detector distances of 1.33 and 7.0 m were utilized to achieve a Q range of 0.0048-0.46 Å^−1. The net intensities were corrected for the background and empty cell (pure D2O), accounting for the detector efficiency using the scattering from an isotropic scatterer (Plexiglas), and converted to an absolute differential cross section per unit sample volume (in units of cm^−1) using an attenuated empty beam. The data were then corrected for incoherent scattering by subtracting a constant background. The shape-reconstruction algorithm GA_STUCT (11) was used to generate solution conformations, similar to previous studies (10, 11). Beginning with an initial guess of randomly-distributed scattering centers, the program rearranges the position of the scattering centers to best fit the experimental scattering data.
The weight-average molecular weight (Mw) of each sample was calculated from the equation
where ρS and ρP are the scattering length densities of the solvent (6.36×10^10 cm^−2) and protein (3.23×10^10 cm^−2), respectively, c is the protein concentration (11.6 mg/mL at pH 3 and 11.4 mg/mL at pH 7), and υ is the protein specific volume (0.734 cm^3/g). (25) I(0)-values were determined from Guinier plots (25) using I(Q)=I(0)exp(−Q^2Rg^2/3), where Rg is the radius of gyration. Guinier plots, generally valid for QRg<1.3, can be influenced by solution structuring due to intermolecular interactions between charged proteins, which becomes increasingly important as Q decreases below 1.5/R (10) (or <0.05 Å^−1 using an α-Ch radius ˜30 Å). Thus, pair distance distribution functions were calculated from the SANS data using the program GNOM (26) according to the equation
where P(r) is related to the probability of two scattering centers (nuclei for SANS) being a distance r+dr apart, and Dmax is the maximum distance between scattering centers within the protein or protein oligomer. I(0)-values were then obtained from the PDDFs through I(0)=4π∫0^D^maxP(r)dr, which has the advantage of utilizing the entire Q-range to determine I(O), as opposed to just the low-Q values as in Guinier analysis (27).

chymotrypsinogen-A = target: T2, chymotrypsinogen-A (Bos taurus, UniProt P00766); experiment: SAXS of chymotrypsinogen-A/azoTAB solutions; set-up: species or system bovine
T2 construct: Chymotrypsinogen is the zymogen of α-chymotrypsin; purchased Worthington LS005630; host or cells: bovine pancreas
Method: The small-angle X-ray scattering data were measured using the X21 beamline at the National Synchrotron Light Source at the Brookhaven National Laboratory. (28) The X-ray wavelength was set to 1.24 Å with a pair of Si(111) monochromator crystals. The sample-to-detector distance was calibrated to be 1.69 m using a silver behenate standard. To avoid radiation damage, solutions were continuously passed at a flow rate of 60 μL/min through a 1-mm glass capillary housed within an aluminum block containing Plexiglas observation windows. (28) The net intensities were corrected for the background and solvent scattering as well as sample transmission, and were put on an absolute scale by comparison with a calibration standard (10 mg/mL BSA (10)).

α-chymotrypsin [2] = target: T1, α-chymotrypsin; experiment: FT-IR secondary structure of α-Ch/azoTAB mixtures; set-up: species or system bovine; details: addition of trans azoTAB to pure α-Ch, and UV exposure of α-Ch/azoTAB
Method: Infrared spectra were measured with a Genesis II FT-IR spectrometer (Mattson Instruments). Solutions were loaded in a demountable liquid cell equipped with a circulating water jacket (T=20° C.) between a pair of CaF2 windows using a 50 μm Teflon spacer. A liquid light guide (Oriel, model no. 77557) was used to directly illuminate the sample with UV or visible light for 2 hours prior to and during data collection, as previously described (9). The sample chamber was continuously purged with dry air to eliminate the influence of water vapor. For each spectrum, a 500-scan interferogram was collected with a 2 cm^−1 resolution. The relatively sharp surfactant peaks at ˜1600 cm^−1 were removed by subtracting the spectra measured for a pure surfactant solution under otherwise identical conditions, resulting in corrected spectra that were flat in the region between 2000 and 1750 cm^−1. Fourier self-deconvolution (FSD) was applied to spectra to resolve the overlapping bands in the Amide I region using a band-narrowing factor k=2.0 and a full width at half height of 12.6 cm^−1. Second derivative spectra were obtained with the Savitsky-Golay function for a 3rd order polynomial, using a 13 data point window. […] Difference spectra obtained for pure α-chymotrypsin solutions without surfactant shown no significant absorbance changes (<1% throughout the amide I region).

α-chymotrypsin [3] = target: T1, α-chymotrypsin; experiment: Congo red staining, optical microscopy of α-Ch/azoTAB solution; set-up: species or system bovine; details: α-Ch/azoTAB solution aged for five days
Method: Optical microscopy was performed on an Olympus IX71 inverted fluorescence microscope equipped using a 50× lens (Olympus, model SLCPlanFl) and a U-N41027 CAL CRIM C58158 filter cube (Chroma, model 058158). Images were recorded with a Hamamatsu digital CCD camera (model C4742-95). Aliquots (5-10 μL) of the protein-surfactant solution were deposited onto glass slides and dyed with an equal volume of a 400 μM Congo red aqueous solution.

α-chymotrypsin [4] = target: T1, α-chymotrypsin; experiment: TEM of α-Ch/azoTAB solutions; set-up: species or system bovine; details: two weeks (fresh solution) or approx. one year (SANS solution, pH 3, 4.2 mM azoTAB)
Method: Transmission electron microscopy was performed on a Philips EM420 TEM operating at 80 kV. A drop of protein solution was placed on a carbon-coated grid for 10 seconds and then blotted with filter paper, followed by repeating this procedure with a second drop. The grid was then placed in a freshly made 1 wt % uranyl acetate solution for 30 s.

[5] = cited from earlier work

CCc1ccc(/N=N/c2ccc(OCC[N+](C)(C)C)cc2)cc1 [azoTAB, azobenzene-trimethylammonium bromide surfactant]
Rg from second Guinier slope (monomer) (α-chymotrypsin [1]; Q^2 ~0.01-0.03 Å^-2, α-Ch/azoTAB solutions, pH 3 and pH 7, visible and UV): 17.0-18.2 Å | type of protein self-association (α-chymotrypsin [1]; UV light (cis azoTAB)): monomer-dodecamer equilibrium | Dmax of oligomer (PDDF) (α-chymotrypsin [1]; UV light, dodecamer): ~160 Å | most probable dimension (PDDF peak) (α-chymotrypsin [1]; UV light, dodecamer): 40-50 Å | effective oligomer size n^eff reached with increasing surfactant concentration (α-chymotrypsin [1]; UV light, SANS and SAXS data): 12 | scaling exponent of Rg^n with oligomer Mw (α-chymotrypsin [1]; hexamer or dodecamer, compared to monomer Rg): 0.42±0.03 | increase in Rg with the addition of azoTAB (α-chymotrypsin [1]; monomer Rg, Table 1): 7% | type of protein self-association (α-chymotrypsin [1]; visible light (trans azoTAB)): monomer-hexamer equilibrium | Dmax of oligomer (PDDF) (α-chymotrypsin [1]; visible light, hexamer): ~120 Å | Rg of chymotrypsinogen (Guinier) (chymotrypsinogen-A; 24 mM azoTAB, visible light, 10.0 mg/mL protein): 19.7 Å | increase in I(0) relative to the monomer data (chymotrypsinogen-A; UV light, 19 mM and 24 mM azoTAB): 12 fold | time for complete visible-light induced dissociation of UV-equilibrated samples (chymotrypsinogen-A; re-exposure to 434-nm visible light): several hours | I(0) (chymotrypsinogen-A; visible light): 0.2 to 0.25 cm⁻¹ | FT-IR change on association (α-chymotrypsin [2]): increase in peaks at 1612 and 1685 cm^−1 | Congo red staining result (α-chymotrypsin [3]): characteristic Congo red fluorescence as well as “apple green” birefringence | fibril diameter (α-chymotrypsin [4]): ca. 10 nm | isomer ratio ([5]; 350-nm UV light): 90/10 | trans isomer ([5]; in the dark, about 24 hours): ~100% | isomer ratio ([5]; visible light, 434 nm): 75/25 | cis→trans isomerization kinetics ([5]; visible light): within minutes
